From patent publication US12091425B2 (AMGEN INC., priority 2016, dated 2024)

How the values were obtained:
[1] = system: OPM-2 human multiple myeloma cell line; test: Cell Viability Assay (OPM-2 10 FBS); assay type: cell-based; settings: OPM-2 cells, 16 h, CellTiter-Glo
In short: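 Plated at 3000 cells/well in 10% FBS complete medium, the cells received a serial compound dilution series and incubated 16 h at 37 °C with 5% CO2. CellTiter-Glo was then added; IC50 values were fitted with a logistic 4-parameter model.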

[2] = biological target: T1, Mcl-1/Bim interaction, recombinant human Mcl-1 (171-327) (Homo sapiens, UniProt Q07820); test: Cell free Mcl-1: Bim Affinity Assay (Mcl-1 HTRF); assay type: binding; settings: TR-FRET, 0.1 nM Mcl-1 (171-327), 0.05 nM biotin-Bim (51-76)
T1 construct: made in house
T1 sequence (Q07820 171-327): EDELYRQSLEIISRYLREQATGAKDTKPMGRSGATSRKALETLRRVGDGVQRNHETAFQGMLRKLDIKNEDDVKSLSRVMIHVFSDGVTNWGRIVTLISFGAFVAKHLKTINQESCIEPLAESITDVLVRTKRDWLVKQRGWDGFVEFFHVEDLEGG
In short: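 Biotin-Bim(51-76) peptide, TR-FRET readout, overnight incubation; IC50 from duplicate competition curves, 4-parameter fit.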

Row | Structure (SMILES) | IC50 ([1]; Homo sapiens, OPM-2, 16 h) | IC50 [2] | IC50 [1]
1 | CC1CC(N(C)C)CC(O)C2CCC2CN2CC3(CCCc4cc(Cl)ccc43)COc3ccc(cc32)C(=O)NS(=O)(=O)C1C (single isomer, unassigned) [Example 248] | 2160 nM | 0.701 nM | –
2 | CC1CC(C)C(C)S(=O)(=O)NC(=O)c2ccc3c(c2)N(CC2CCC2C(O)C1)CC1(CCCc2cc(Cl)ccc21)CO3 (single isomer, unassigned) [Example 259] | 23000 nM | 44.4 nM | –
3 | CC1CC(C)CS(=O)(=O)NC(=O)c2ccc3c(c2)N(CC2CCC2C(O)C1)CC1(CCCc2cc(Cl)ccc21)CO3 (single isomer, unassigned) [Example 270] | – | 1.03 nM | 116 nM
4 | CC1CC(C)CS(=O)(=O)NC(=O)c2ccc3c(c2)N(CC2CCC2C(O)C1)CC1(CCCc2cc(Cl)ccc21)CO3 (single isomer, unassigned) [Example 272] | – | 0.396 nM | 1190 nM
5 | O=C1NS(=O)(=O)[C@@H]2CCOC[C@H]2C/C=C/[C@H](O)[C@@H]2CC[C@H]2CN2C[C@@]3(CCCc4cc(Cl)ccc43)COc3ccc1cc32 (single isomer, unassigned) [Example 318] | 430 nM | 0.273 nM | –
6 | CO[C@H]1/C=C/C[C@@H]2COCC[C@H]2S(=O)(=O)NC(=O)c2ccc3c(c2)N(C[C@@H]2CC[C@H]21)C[C@@]1(CCCc2cc(Cl)ccc21)CO3 (single isomer, unassigned) [Example 320] | – | 0.329 nM | 342 nM
7 | CO[C@H]1/C=C/C[C@H]2COCC[C@@H]2S(=O)(=O)NC(=O)c2ccc3c(c2)N(C[C@@H]2CC[C@H]21)C[C@@]1(CCCc2cc(Cl)ccc21)CO3 (single isomer, unassigned) [Example 321] | – | 2.29 nM | 2180 nM
8 | COCCOC1C=CCC2COCCC2S(=O)(=O)NC(=O)c2ccc3c(c2)N(CC2CCC21)CC1(CCCc2cc(Cl)ccc21)CO3 (single isomer, unassigned) [Example 322] | 123 nM | 0.4 nM | –
9 | O=C1NS(=O)(=O)[C@@H]2CCC[C@@H]2C/C=C/[C@H](O)[C@@H]2CC[C@H]2CN2C[C@@]3(CCCc4cc(Cl)ccc43)COc3ccc1cc32 (single isomer, unassigned) [Example 323] | 2980 nM | 2.02 nM | –
10 | O=C1NS(=O)(=O)[C@H]2CCC[C@H]2C/C=C/[C@H](O)[C@@H]2CC[C@H]2CN2C[C@@]3(CCCc4cc(Cl)ccc43)COc3ccc1cc32 (single isomer, unassigned) [Example 324] | – | 1.68 nM | 1940 nM
11 | O=C1NS(=O)(=O)[C@@H]2CCC[C@H]2C/C=C/[C@H](O)[C@@H]2CC[C@H]2CN2C[C@@]3(CCCc4cc(Cl)ccc43)COc3ccc1cc32 (single isomer, unassigned) [Example 325] | – | 0.297 nM | 208 nM
12 | O=C1NS(=O)(=O)[C@@H]2CCC[C@H]2C/C=C/[C@H](O)[C@@H]2CC[C@H]2CN2C[C@@]3(CCCc4cc(Cl)ccc43)COc3ccc1cc32 (single isomer, unassigned) [Example 326] | – | 5.51 nM | 20000 nM
13 | Cn1cnc(CO[C@H]2/C=C/C[C@@H]3CCC[C@H]3S(=O)(=O)NC(=O)c3ccc4c(c3)N(C[C@@H]3CC[C@H]32)C[C@@]2(CCCc3cc(Cl)ccc32)CO4)n1 (single isomer, unassigned) [Example 328] | – | 0.44 nM | 428 nM
14 | Cn1cnc(CO[C@H]2/C=C/C[C@H]3CCC[C@@H]3S(=O)(=O)NC(=O)c3ccc4c(c3)N(C[C@@H]3CC[C@H]32)C[C@@]2(CCCc3cc(Cl)ccc32)CO4)n1 (single isomer, unassigned) [Example 329] | – | 2.58 nM | 3480 nM
15 | O=C1NS(=O)(=O)[C@@H]2CCCC[C@H]2C/C=C/[C@H](O)[C@@H]2CC[C@H]2CN2C[C@@]3(CCCc4cc(Cl)ccc43)COc3ccc1cc32 (single isomer, unassigned) [Example 331] | 284 nM | 0.248 nM | –
16 | O=C1NS(=O)(=O)[C@H]2CCCC[C@@H]2C/C=C/[C@H](O)[C@@H]2CC[C@H]2CN2C[C@@]3(CCCc4cc(Cl)ccc43)COc3ccc1cc32 (single isomer, unassigned) [Example 332] | 5580 nM | 3.89 nM | –
17 | O=C1NS(=O)(=O)[C@@H]2CCCC[C@H]2CCC[C@H](O)[C@@H]2CC[C@H]2CN2C[C@@]3(CCCc4cc(Cl)ccc43)COc3ccc1cc32 (single isomer, unassigned) [Example 333] | – | 0.96 nM | 3450 nM
18 | O=C1NS(=O)(=O)[C@H]2CCCC[C@@H]2CCC[C@H](O)[C@@H]2CC[C@H]2CN2C[C@@]3(CCCc4cc(Cl)ccc43)COc3ccc1cc32 (single isomer, unassigned) [Example 334] | – | 6.92 nM | 2660 nM
19 | O=C1NS(=O)(=O)[C@@H]2C[C@H](O)C[C@H]2C/C=C/[C@H](O)[C@@H]2CC[C@H]2CN2C[C@@]3(CCCc4cc(Cl)ccc43)COc3ccc1cc32 (single isomer, unassigned) [Example 335] | – | 0.263 nM | 2120 nM

Row | Structure (SMILES) | IC50 ([1]; Homo sapiens, OPM-2, 16 h) | IC50 [2] | IC50 [1]
20 | CO[C@@H]1C[C@H]2C/C=C/[C@H](OC)[C@@H]3CC[C@H]3CN3C[C@@]4(CCCc5cc(Cl)ccc54)COc4ccc(cc43)C(=O)NS(=O)(=O)[C@@H]2C1 (single isomer, unassigned) [Example 337] | – | 0.705 nM | 383 nM
21 | CC(=O)N1C[C@H]2C/C=C/[C@H](O)[C@@H]3CC[C@H]3CN3C[C@@]4(CCCc5cc(Cl)ccc54)COc4ccc(cc43)C(=O)NS(=O)(=O)[C@@H]2C1 (single isomer, unassigned) [Example 338] | – | 0.241 nM | 5620 nM
22 | CO[C@H]1/C=C/C[C@@H]2CN(C(C)=O)C[C@H]2S(=O)(=O)NC(=O)c2ccc3c(c2)N(C[C@@H]2CC[C@H]21)C[C@@]1(CCCc2cc(Cl)ccc21)CO3 (single isomer, unassigned) [Example 340] | – | 0.19 nM | 941 nM
23 | O=C1NS(=O)(=O)N2CCOC[C@H]2C/C=C/[C@H](O)[C@@H]2CC[C@H]2CN2C[C@@]3(CCCc4cc(Cl)ccc43)COc3ccc1cc32 (single isomer, unassigned) [Example 343] | 6490 nM | 7.27 nM | –
24 | O=C1NS(=O)(=O)N2CCOC[C@H]2C/C=C\[C@H](O)[C@@H]2CC[C@H]2CN2C[C@@]3(CCCc4cc(Cl)ccc43)COc3ccc1cc32 (single isomer, unassigned) [Example 344] | 912 nM | 2.11 nM | –
25 | O=C1NS(=O)(=O)N2CCC[C@H]2C/C=C/[C@H](O)[C@@H]2CC[C@H]2CN2C[C@@]3(CCCc4cc(Cl)ccc43)COc3ccc1cc32 (single isomer, unassigned) [Example 345] | 488 nM | 0.877 nM | –
26 | CC(=O)O[C@H]1/C=C/C[C@@H]2CCCN2S(=O)(=O)NC(=O)c2ccc3c(c2)N(C[C@@H]2CC[C@H]21)C[C@@]1(CCCc2cc(Cl)ccc21)CO3 (single isomer, unassigned) [Example 346] | 2270 nM | 1.9 nM | –
27 | CC(=O)O[C@H]1/C=C/C[C@H]2CCCN2S(=O)(=O)NC(=O)c2ccc3c(c2)N(C[C@@H]2CC[C@H]21)C[C@@]1(CCCc2cc(Cl)ccc21)CO3 (single isomer, unassigned) [Example 348] | 3560 nM | 6.86 nM | –
28 | CNC(=O)C(OC)C1C=CC2CCC2CN2CC3(CCCc4cc(Cl)ccc43)COc3ccc(cc32)C(=O)NS(=O)(=O)C(C)C(C)C1 (single isomer, unassigned) [Example 361] | 509 nM | 0.519 nM | –
29 | CNC(=O)[C@@H](OC)[C@@H]1CC[C@@H]2CC[C@H]2CN2C[C@@]3(CCCc4cc(Cl)ccc43)COc3ccc(cc32)C(=O)NS(=O)(=O)[C@H](C)[C@@H](C)C1 (single isomer, unassigned) [Example 363] | – | 0.793 nM | 483 nM
30 | O=C1NS(=O)(=O)[C@H]2CCCC(C2)[C@H](O)[C@@H]2CC[C@H]2CN2C[C@@]3(CCCc4cc(Cl)ccc43)COc3ccc1cc32 (single isomer, unassigned) [Example 364] | – | 3.12 nM | 30900 nM
31 | O=C1NS(=O)(=O)[C@H](Cc2nccs2)CC/C=C/[C@H](O)[C@@H]2CC[C@H]2CN2C[C@@]3(CCCc4cc(Cl)ccc43)COc3ccc1cc32 (single isomer, unassigned) [Example 373] | – | 0.731 nM | 404 nM
32 | O=C1NS(=O)(=O)[C@H](Cc2nccs2)CC/C=C\[C@H](O)[C@@H]2CC[C@H]2CN2C[C@@]3(CCCc4cc(Cl)ccc43)COc3ccc1cc32 (single isomer, unassigned) [Example 374] | – | 2.86 nM | 2940 nM
33 | COCCO[C@H]1/C=C/C[C@@H](C)CS(=O)(=O)NC(=O)c2ccc3c(c2)N(C[C@@H]2CC[C@H]21)C[C@@]1(CCCc2cc(Cl)ccc21)CO3 (single isomer, unassigned) [Example 375] | – | 7.73 nM | 5700 nM
34 | COCCO[C@H]1/C=C/C[C@H](C)CS(=O)(=O)NC(=O)c2ccc3c(c2)N(C[C@@H]2CC[C@H]21)C[C@@]1(CCCc2cc(Cl)ccc21)CO3 (single isomer, unassigned) [Example 376] | – | 0.403 nM | 222 nM
35 | C[C@H]1C/C=C/[C@H](OCCN2CCOCC2)[C@@H]2CC[C@H]2CN2C[C@@]3(CCCc4cc(Cl)ccc43)COc3ccc(cc32)C(=O)NS(=O)(=O)[C@@H]1CC1CC1 (single isomer, unassigned) [Example 386] | – | 0.63 nM | 273 nM
36 | COCC[C@@H]1[C@@H](C)C/C=C/[C@H](O)[C@@H]2CC[C@H]2CN2C[C@@]3(CCCc4cc(Cl)ccc43)COc3ccc(cc32)C(=O)NS1(=O)=O (single isomer, unassigned) [Example 393] | – | 0.213 nM | 137 nM
37 | COCC[C@@H]1[C@@H](C)C/C=C\[C@H](O)[C@@H]2CC[C@H]2CN2C[C@@]3(CCCc4cc(Cl)ccc43)COc3ccc(cc32)C(=O)NS1(=O)=O (single isomer, unassigned) [Example 394] | – | 1.26 nM | 1250 nM
